Data: the NIST ThermoML archive (doi:10.1021/acs.jced.6b01071)
Numbers after ± are expanded uncertainties.

How the values were obtained:
[1] = Liquid; for mass density: 298.15 K, 101.33 kPa, Vibrating tube method; for vapor or sublimation pressure: Ebulliometric method (Recirculating still)
[2] = refractive index (Na D-line) (dimensionless); details: 298.15 K; 101.33 kPa; Liquid; Standard Abbe refractometry
[3] = Boiling temperature at pressure P; details: 101.3 kPa; Liquid; Ebulliometric method (Recirculating still)

SMILES	mass density [1] [kg/m3]	vapor or sublimation pressure ([1]; 381.15 K) [kPa]	vapor or sublimation pressure ([1]; 381.41 K) [kPa]	vapor or sublimation pressure ([1]; 395.9 K) [kPa]	vapor or sublimation pressure ([1]; 396.04 K) [kPa]	vapor or sublimation pressure ([1]; 406.39 K) [kPa]	vapor or sublimation pressure ([1]; 406.59 K) [kPa]	refractive index [2]	Boiling temperature at pressure P [3] [°C]	vapor or sublimation pressure ([1]; 384.76 K) [kPa]	vapor or sublimation pressure ([1]; 400.65 K) [kPa]	vapor or sublimation pressure ([1]; 411.56 K) [kPa]	vapor or sublimation pressure ([1]; 309.68 K) [kPa]	vapor or sublimation pressure ([1]; 320.76 K) [kPa]	vapor or sublimation pressure ([1]; 328.55 K) [kPa]
COCC(C)OC(C)=O (stereo unspecified) [1-methoxy-2-propyl acetate]	961.52 ± 5	30 ± 1	30 ± 1	50 ± 1	50 ± 1	70 ± 1	70 ± 1	1.3986 ± 0.01	145.57 ± 0.2						
CN(C)C=O [dimethylformamide]	943.89 ± 5							1.4277 ± 0.01	153.50 ± 0.2	30 ± 1	50 ± 1	70 ± 1			
CO [methanol]	786.59 ± 5							1.3264 ± 0.01	64.48 ± 0.2				30 ± 1	50 ± 1	70 ± 1
